Experimental findings from US20220324835A1 (Nurix Therapeutics, Inc., priority 2018, published 2022) are described below.

The subject of one assay is primary human NK cells. Kind of assay: NK cell activation assessed by cytokine secretion (coculture with K562 NucRed target cells). The class given is cell-based. The settings on record: for fold induction at 0.625 µM: 0.625 μM compound; for fold induction at 2.5 µM: 2.5 μM compound. In a few lines:
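Primary NK cells from donor PBMC, IL-2 (60 ng/mL) overnight, then Cbl-b inhibitor (e.g. 10, 1 or 0.1 μM; DMSO <0.1%) for 1 h before 6 h coculture with K562 NucRed at effector:target ratios such as 5:1, 1:1 or 1:5. Supernatant IFNγ, TNFα, MIP1β measured by ELISA or Luminex; fold change over inhibitor-free baseline, >2.0-fold positive.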

Assay [1] concerns human T-cells with allogenic immature dendritic cells. Kind of assay: Allogenic mixed lymphocyte reaction (MLR), T-cell proliferation. The settings on record: 120 h, 5 days, baseline T-cells without Cbl-b inhibitor, read-out: Proliferation, fold change over baseline. It counts as cell-based. Here is the method: Cbl-b inhibitor effects on primary human T-cells were also evaluated in the context of an allogenic mixed lymphocyte reaction (MLR). Allogenic immature dendritic cells were generated under the following conditions. Peripheral blood mononuclear cells (PBMC) were obtained either: 1) by using Ficoll-Paque™ (GE Healthcare) for separation of peripheral blood hematopoietic cells from huffy coats of healthy human donors; or 2) directly from LeukoPak donations. […] Monocytes were cultured with 30 ng/mL of recombinant human GM-CSF and 20 ng/mL of recombinant human IL-4 for seven days to generate immature dendritic cells. Monocytes and T-cells were either isolated fresh from peripheral blood or thawed from frozen stocks. Human T-cells were isolated, labeled with CFSE and incubated with inhibitors as described above. […] Proliferation of the T-cells was evaluated by flow cytometry.
Readouts for the allogenic mixed lymphocyte reaction were reported as fold change over baseline. Baseline for this study was the measurement obtained from total human T-cells stimulated with allogenic immature dendritic cells, wherein the T-cells were not incubated with a Cbl-b inhibitor (Table 5). Increases in proliferation greater than 2-fold over baseline were considered a positive response (Table 5).

Where [2] appears, read: K562, 1:1 E/T, read-out: IFNγ secretion.
The mark [3] stands for this setting: K562, 1:1 E/T, read-out: MIP1β secretion.
The mark [4] stands for this setting: K562, 1:1 E/T, read-out: TNFα secretion.
[5] abbreviates: K562, 1:1 E/T, 10 μM, read-out: IFNγ secretion.
[6] abbreviates: K562, 1:1 E/T, 10 μM, read-out: MIP1β secretion.
The mark [7] stands for this setting: K562, 1:1 E/T, 10 μM, read-out: TNFα secretion.
Setting [8] is: K562, 5:1 E/T, read-out: IFNγ secretion.
The mark [9] stands for this setting: K562, 5:1 E/T, read-out: MIP1β secretion.
[10] abbreviates: K562, 5:1 E/T, read-out: TNFα secretion.
Setting [11] is: K562, 5:1 E/T, 10 μM, read-out: IFNγ secretion.
Setting [12] is: K562, 5:1 E/T, 10 μM, read-out: MIP1β secretion.
Setting [13] is: K562, 5:1 E/T, 10 μM, read-out: TNFα secretion.
The mark [14] stands for this setting: K562, NK cells cocultured with K562 NucRed, 1:1 E/T, read-out: IFNγ secretion, fold change over baseline.
[15] abbreviates: K562, NK cells cocultured with K562 NucRed, 1:1 E/T, read-out: TNFα secretion, fold change over baseline.
Where [16] appears, read: K562, NK cells cocultured with K562 NucRed, 1:1 E/T, 10 μM compound, read-out: IFNγ secretion, fold change over baseline.
Where [17] appears, read: K562, NK cells cocultured with K562 NucRed, 1:1 E/T, 10 μM compound, read-out: TNFα secretion, fold change over baseline.

Where two headings read alike, the source gives them in different places.

As for `C[C@H](Cc1nncn1C)c1cccc(N2Cc3c(cc(CN4CC[C@H](F)C4)cc3C(F)(F)F)C2=O)c1` [Compound 399, 6-(((S)-3-fluoropyrrolidin-1-yl)methyl)-2-(3-((R)-1-(4-methyl-4H-1,2,4-triazol-3-yl)propan-2-yl)phenyl)-4-(trifluoromethyl)isoindolin-1-one], the fold induction at 1 µM with primary human NK cells (setting [2]) was in the range of 2.01 to 5; in the assay with primary human NK cells (setting [3]), 1.01 to 2; in the assay on primary human NK cells (setting [4]), 2.01 to 5; in the assay with primary human NK cells (setting [8]) it was 2.01 to 5; in the assay with primary human NK cells (setting [9]) it was 1.01 to 2; with primary human NK cells (setting [10]), 2.01 to 5. Besides, the fold induction at 10 µM with primary human NK cells (setting [5]) was > 5; in the assay with primary human NK cells (setting [6]), 1.01 to 2; with primary human NK cells (setting [7]), 2.01 to 5; with primary human NK cells (setting [11]), > 5; with primary human NK cells (setting [12]) it was 1.01 to 2; with primary human NK cells (setting [13]) it was > 5. In addition, the fold induction at 10 µM was > 5 in the assay on primary human NK cells (setting [16]), > 5 in the assay with primary human NK cells (setting [17]) and > 3.01 in assay [1]. For the same compound, the fold induction at 0.625 µM with primary human NK cells (setting [14]) and in the assay on primary human NK cells (setting [15]) was 2.01 to 5 throughout. Further, the fold induction at 2.5 µM in the assay on primary human NK cells (setting [14]) and with primary human NK cells (setting [15]) was > 5 in each case. Also, in assay [1], the fold induction at 3 µM fell in the range of 2.01 to 3.

Consider `Cn1cnnc1CC1(c2cccc(N3Cc4c(cc(CN5CC[C@H](C#N)C5)cc4C(F)(F)F)C3=O)c2)COC1` [Compound 422, (S)-1-((2-(3-(3-((4-methyl-4H-1,2,4-triazol-3-yl)methyl)oxetan-3-yl)phenyl)-3-oxo-7-(trifluoromethyl)isoindolin-5-yl)methyl)pyrrolidine-3-carbonitrile], for which the fold induction at 0.625 µM in the assay on primary human NK cells (setting [14]) and in the assay on primary human NK cells (setting [15]) was 1.01 to 2 in each case. Also, the fold induction at 2.5 µM in the assay with primary human NK cells (setting [14]) was 2.01 to 5; in the assay on primary human NK cells (setting [15]) it was 1.01 to 2. Also, the values for the fold induction at 10 µM (with primary human NK cells (setting [16]); in the assay on primary human NK cells (setting [17]); in assay [1]) were 2.01 to 5, 2.01 to 5 and 2.01 to 3, respectively. Also, the fold induction at 3 µM in assay [1] was < 2.

Regarding `Cn1cnnc1C(F)(F)[C@](C)(F)c1cccc(N2Cc3c(cc(C(=O)N4CC[C@H](O)C4)cc3C(F)(F)F)C2=O)c1` [Compound 438, 6-((S)-3-hydroxypyrrolidine-1-carbonyl)-2-(3-((R)-1,1,2-trifluoro-1-(4-methyl-4H-1,2,4-triazol-3-yl)propan-2-yl)phenyl)-4-(trifluoromethyl)isoindolin-1-one], the fold induction at 1 µM is < 1 with primary human NK cells (setting [2]); < 1 with primary human NK cells (setting [3]); 1.01 to 2 in the assay with primary human NK cells (setting [4]); < 1 with primary human NK cells (setting [8]); < 1 in the assay with primary human NK cells (setting [9]); 1.01 to 2 in the assay with primary human NK cells (setting [10]). For the same compound, the fold induction at 10 µM was < 1 with primary human NK cells (setting [5]); < 1 with primary human NK cells (setting [6]); 1.01 to 2 in the assay on primary human NK cells (setting [7]); 1.01 to 2 in the assay on primary human NK cells (setting [11]); 1.01 to 2 in the assay with primary human NK cells (setting [12]); 1.01 to 2 in the assay on primary human NK cells (setting [13]). Besides, the fold induction at 10 µM in the assay with primary human NK cells (setting [16]) was 2.01 to 5; with primary human NK cells (setting [17]) it was 1.01 to 2; in assay [1], < 2. Moreover, the fold induction at 0.625 µM in the assay with primary human NK cells (setting [14]) and with primary human NK cells (setting [15]) was 1.01 to 2 each time. The fold induction at 2.5 µM with primary human NK cells (setting [14]) and in the assay with primary human NK cells (setting [15]) was 1.01 to 2 in each case. The fold induction at 3 µM in assay [1] is < 2.

Turning to `Cn1cnnc1C(F)(F)[C@](C)(F)c1cccc(N2Cc3c(cc(N4CCNCC4)cc3C(F)(F)F)C2=O)c1` [Compound 442, (R)-6-(Piperazin-1-yl)-2-(3-(1,1,2-trifluoro-1-(4-methyl-4H-1,2,4-triazol-3-yl)propan-2-yl)phenyl)-4-(trifluoromethyl)isoindolin-1-one], the fold induction at 0.625 µM in the assay on primary human NK cells (setting [14]) and with primary human NK cells (setting [15]) was 2.01 to 5 in each case. Further, the fold induction at 2.5 µM in the assay with primary human NK cells (setting [14]) and in the assay with primary human NK cells (setting [15]) was 2.01 to 5 in each case. The fold induction at 10 µM in the assay on primary human NK cells (setting [16]) was 2.01 to 5; in the assay on primary human NK cells (setting [17]), 1.01 to 2; in assay [1], < 2. In addition, the fold induction at 3 µM in assay [1] was < 2.
